In brackets after ≈: the same amount, converted by molar mass. Activity calls are given as the source filed them. No cut-off for these calls is given here.
What was measured:
Clostridium perfringens = assay: Antibacterial activity against Clostridium perfringens ATCC 13124 assessed as growth inhibition after 20 to 24 hrs; format: functional
Staphylococcus aureus = assay: Antibacterial activity against Staphylococcus aureus 8325-4 assessed as growth inhibition after 20 to 24 hrs; format: functional
Clostridioides difficile [1] = assay: Antibacterial activity against stationary phase of Clostridium difficile CD196 assessed as cell killing at 1 to 20 X MIC after 3 to 6 hrs; format: functional
[2] = Cytotoxicity against human HepG2 cells assessed as concentration required to decrease cell viability incubated for 24 hrs followed by compound washout measured after 18 hrs by resazurin dye-based assay; conditions: read-out: Activity
Escherichia coli = assay: Antibacterial activity against Escherichia coli ATCC 700927 assessed as growth inhibition after 20 to 24 hrs; format: functional
Clostridioides difficile [3] = assay: Antibacterial activity against Clostridium difficile CD196 assessed as growth inhibition after 20 to 24 hrs; format: functional
Bacteroides fragilis = assay: Antibacterial activity against Bacteroides fragilis ATCC 25285 assessed as growth inhibition after 20 to 24 hrs; format: functional; conditions: NCTC 9343
Lacticaseibacillus casei = assay: Antibacterial activity against Lactobacillus casei ATCC 334 assessed as growth inhibition after 20 to 24 hrs; format: functional
[4] = system: Bacteroides thetaiotaomicron; assay: Antibacterial activity against Bacteroides thetaiotaomicron ATCC 29148 assessed as growth inhibition after 20 to 24 hrs; format: functional
Streptococcus mutans = assay: Antibacterial activity against Streptococcus mutans ATCC 700610 assessed as growth inhibition after 20 to 24 hrs; format: functional
Bifidobacterium longum = assay: Antibacterial activity against Bifidobacterium longum ATCC BAA-999 assessed as growth inhibition after 20 to 24 hrs; format: functional
Enterococcus faecalis = assay: Antibacterial activity against Enterococcus faecalis ATCC 47077 assessed as growth inhibition after 20 to 24 hrs; format: functional
FaDu = assay: Cytotoxicity against human FADU cells assessed as concentration required to decrease cell viability incubated for 24 hrs followed by compound washout measured after 18 hrs by resazurin dye-based assay
[5] = system: Limosilactobacillus reuteri; assay: Antibacterial activity against Lactobacillus reuteri ATCC 23272 assessed as growth inhibition after 20 to 24 hrs; format: functional
Clostridioides difficile [6] = assay: Bactericidal activity against Clostridium difficile CD196 after 20 to 24 hrs; format: functional; conditions: read-out: MBC99.9
Clostridioides difficile [7] = assay: Antibacterial activity against Clostridium difficile UK6 clinical isolate assessed as growth inhibition after 20 to 24 hrs; format: functional
Clostridioides difficile [8] = assay: Antibacterial activity against Clostridium difficile 10463 clinical isolate assessed as growth inhibition after 20 to 24 hrs; format: functional
Clostridioides difficile [9] = assay: Antibacterial activity against Clostridium difficile UK1 clinical isolate assessed as growth inhibition after 20 to 24 hrs; format: functional
Clostridioides difficile [10] = assay: Antibacterial activity against Clostridium difficile VPI clinical isolate assessed as growth inhibition after 20 to 24 hrs; format: functional
Clostridioides difficile [11] = assay: Antibacterial activity against Clostridium difficile GC1 clinical isolate assessed as growth inhibition after 20 to 24 hrs; format: functional
[12] = Antibacterial activity against Clostridium difficile 630 clinical isolate assessed as growth inhibition after 20 to 24 hrs; format: functional, Clostridioides difficile 630; conditions: Clostridioides difficile

Row | SMILES | MIC (Clostridium perfringens) [mg/L] | MIC (Staphylococcus aureus) [mg/L] | MIC (Escherichia coli) [mg/L] | MIC (Clostridioides difficile [3]) [mg/L] | MIC (Bacteroides fragilis) [mg/L] | MIC (Lacticaseibacillus casei) [mg/L] | MIC [4] [mg/L] | MIC (Streptococcus mutans) [mg/L] | MIC (Bifidobacterium longum) [mg/L] | MIC (Enterococcus faecalis) [mg/L] | MIC [5] [mg/L] | also measured
1 | Cc1ncc([N+](=O)[O-])n1CCO [METRONIDAZOLE] | 3.13 (≈ 18.3 µM) | > 50 | > 50 | 1.56 (≈ 9.11 µM) | ≤ 0.78 | > 50 | ≤ 0.78 | > 50 | ≤ 0.78 | > 50 | > 50 | Activity (Clostridioides difficile [1]): inactive; MCC at 24 h [2]: > 200 µg/mL; Activity (FaDu): > 200 µg/mL
2 | Cc1ccc(C(=O)N/N=C/c2ccc(O)c3ccccc23)cc1 | > 50 | > 50 | > 50 | > 50 | > 50 | > 50 | > 50 | > 50 | > 50 | > 50 | > 50 | 
3 | O/N=C/c1c(O)ccc2ccccc12 |  |  |  | > 50 |  |  |  |  |  |  |  | 
4 | N#CC(C#N)=NNc1cccc(Cl)c1 [CARBONYL CYANIDE M-CHLOROPHENYLHYDRAZONE] | > 50 | > 50 | > 50 | 1.56 (≈ 7.62 µM) | > 50 | > 50 | > 50 | > 50 | 3.25 (≈ 15.9 µM) | > 50 | > 50 | Activity (Clostridioides difficile [1]): Active; MCC at 24 h [2]: 50 µg/mL; Activity (FaDu): 50 µg/mL
5 | COc1cccc(/C=N/NC(=O)c2ccc(C)cc2)c1O | 6.25 (≈ 22 µM) | > 50 | > 50 | 12.5 (≈ 44 µM) | > 50 | > 50 | > 50 | 1.56 (≈ 5.49 µM) | > 50 | > 50 | > 50 | 
6 | Oc1ccc2ccccc2c1/C=N/Nc1ccccc1 |  |  |  | > 50 |  |  |  |  |  |  |  | 
7 | Cc1cc(C(=O)N/N=C/c2c(O)ccc3ccccc23)c2cc(Br)ccc2n1 | 25 (≈ 57.6 µM) | > 50 | > 50 | > 50 | > 50 | > 50 | > 50 | > 50 | > 50 | > 50 | > 50 | 
8 | O=C(N/N=C/c1c(O)ccc2ccccc12)c1cccc(Br)c1 |  |  |  | 6.25 (≈ 16.9 µM) |  |  |  |  |  |  |  | 
9 | Cc1cc(C(=O)N/N=C/c2ccc([N+](=O)[O-])o2)[nH]n1 | ≤ 12.5 | 1.56 (≈ 5.93 µM) | 12.5 (≈ 47.5 µM) | 0.78 (≈ 2.96 µM) | ≤ 3.13 | 6.25 (≈ 23.7 µM) | ≤ 3.13 | 1.56 (≈ 5.93 µM) | ≤ 0.78 | 12.5 (≈ 47.5 µM) | 12.5 (≈ 47.5 µM) | 
10 | O=C(NCc1ccccc1)c1ccc(-c2ccccc2)cc1 |  |  |  | > 50 |  |  |  |  |  |  |  | 
11 | CC(=O)N/N=C/c1ccccc1 |  |  |  | > 50 |  |  |  |  |  |  |  | 
12 | O=C(N/N=C/c1c(O)ccc2ccccc12)c1ccc([N+](=O)[O-])cc1 |  |  |  | > 50 |  |  |  |  |  |  |  | 
13 | O=C(N/N=C/c1c(O)ccc2ccccc12)c1cc2ccccc2cc1O |  |  |  | 12.5 (≈ 35.1 µM) |  |  |  |  |  |  |  | 
14 | Cc1ccc(C(=O)N(C)/N=C/c2c(O)ccc3ccccc23)cc1 | > 50 | > 50 | > 50 | > 50 | > 50 | > 50 | > 50 | > 50 | > 50 | > 50 | > 50 | 
15 | COc1ccc2ccccc2c1/C=N/NC(=O)c1ccc(C)cc1 | > 50 | > 50 | > 50 | > 50 | > 50 | > 50 | > 50 | > 50 | > 50 | > 50 | > 50 | 
16 | Oc1c(Cl)c(Cl)c(Cl)c(Cl)c1Cl [PENTACHLOROPHENOL] | 6.25 (≈ 23.5 µM) | < 0.78 | > 50 | 50 (≈ 188 µM) | 6.25 (≈ 23.5 µM) | 50 (≈ 188 µM) | 6.25 (≈ 23.5 µM) | 25 (≈ 93.9 µM) | 12.5 (≈ 46.9 µM) | > 50 | 50 (≈ 188 µM) | 
17 | Cc1ccc(C(=O)N/N=C/c2cccc3ccccc23)cc1 | > 50 | > 50 | > 50 | > 50 | > 50 | > 50 | > 50 | > 50 | > 50 | > 50 | > 50 | 
18 | Cc1ccc(C(=O)N/N=C/c2c(O)ccc3ccccc23)cc1 | 1.56 (≈ 5.13 µM) | > 50 | > 50 | 6.25 (≈ 20.5 µM) | 12.5 (≈ 41.1 µM) | > 50 | 25 (≈ 82.1 µM) | > 50 | > 50 | > 50 | > 50 | Activity (Clostridioides difficile [1]): Active; MCC at 24 h [2]: > 100 µg/mL; MBC (Clostridioides difficile [6]): 6.25 mg/L (≈ 20.5 µM); Activity (FaDu): > 100 µg/mL

Row | SMILES | MIC (Clostridium perfringens) [mg/L] | MIC (Staphylococcus aureus) [mg/L] | MIC (Escherichia coli) [mg/L] | MIC (Clostridioides difficile [3]) [mg/L] | MIC (Bacteroides fragilis) [mg/L] | MIC (Lacticaseibacillus casei) [mg/L] | MIC [4] [mg/L] | MIC (Streptococcus mutans) [mg/L] | MIC (Bifidobacterium longum) [mg/L] | MIC (Enterococcus faecalis) [mg/L] | MIC [5] [mg/L] | also measured
19 | O=C(CO)N/N=C/c1cccc2ccccc12 |  |  |  | > 50 |  |  |  |  |  |  |  | 
20 | O=C(N/N=C/c1c(OCc2cccc(Br)c2)ccc2ccccc12)c1ccccc1 |  |  |  | > 50 |  |  |  |  |  |  |  | 
21 | NC(=O)N/N=C/c1c(O)ccc2ccccc12 |  |  |  | > 50 |  |  |  |  |  |  |  | 
22 | Clc1ccc(COC(Cn2ccnc2)c2ccc(Cl)cc2Cl)c(Cl)c1 (stereo not given) [MICONAZOLE] |  |  |  |  |  |  |  |  |  |  |  | MCC at 24 h [2]: 50 µg/mL; Activity (FaDu): 50 µg/mL
23 | COc1cccc(/C=N/NC(=O)c2cc(C)nc3ccc(Br)cc23)c1 | > 50 | > 50 | > 50 | > 50 | > 50 | > 50 | > 50 | > 50 | > 50 | > 50 | > 50 | 
24 | O=C(NNC(=O)c1ccc(-c2ccccc2)cc1)c1ccc(-c2ccccc2)cc1 |  |  |  | > 50 |  |  |  |  |  |  |  | 
25 | O=C(N/N=C/c1c(O)ccc2ccccc12)c1ccc(Cl)cc1 | ≤ 0.78 | > 50 | > 50 | 6.25 (≈ 19.2 µM) | 12.5 (≈ 38.5 µM) | > 50 | 12.5 (≈ 38.5 µM) | > 50 | > 50 | > 50 | > 50 | 
26 | Cc1cccc(/C=N/NC(=O)c2ccc(-c3ccccc3)cc2)c1 |  |  |  | > 50 |  |  |  |  |  |  |  | 
27 | O=C(N/N=C/c1c(O)ccc2ccccc12)c1ccccc1 |  |  |  | 6.25 (≈ 21.5 µM) |  |  |  |  |  |  |  | 
28 | COc1cccc(/C=N/NC(=O)c2cc(C)n[nH]2)c1O | > 50 | > 50 | > 50 | > 50 | > 50 | > 50 | > 50 | > 50 | > 50 | > 50 | > 50 | 
29 | CN[C@H](CC(C)C)C(=O)N[C@H]1C(=O)N[C@@H](CC(N)=O)C(=O)N[C@H]2C(=O)N[C@H]3C(=O)N[C@H](C(=O)N[C@H](C(=O)O)c4cc(O)cc(O)c4-c4cc3ccc4O)[C@H](O)c3ccc(c(Cl)c3)Oc3cc2cc(c3O[C@@H]2O[C@H](CO)[C@@H](O)[C@H](O)[C@H]2O[C@H]2C[C@](C)(N)[C@H](O)[C@H](C)O2)Oc2ccc(cc2Cl)[C@H]1O [VANCOMYCIN] | ≤ 0.78 | 3.13 (≈ 2.16 µM) | > 50 | 1 (≈ 0.69 µM) | 12.5 (≈ 8.63 µM) | > 50 | 12.5 (≈ 8.63 µM) | 1.56 (≈ 1.08 µM) | ≤ 0.78 | 3.13 (≈ 2.16 µM) | > 50 | Activity (Clostridioides difficile [1]): inactive; MCC at 24 h [2]: > 200 µg/mL; MIC (Clostridioides difficile [7]): 0.75 mg/L (≈ 0.518 µM); MIC (Clostridioides difficile [8]): 1.5 mg/L (≈ 1.04 µM); MIC (Clostridioides difficile [9]): 1.5 mg/L (≈ 1.04 µM); MIC (Clostridioides difficile [10]): 1.5 mg/L (≈ 1.04 µM); MIC (Clostridioides difficile [11]): 1.5 mg/L (≈ 1.04 µM); MIC [12]: 0.75 mg/L (≈ 0.518 µM); Activity (FaDu): > 200 µg/mL
30 | O=C(N/N=C/c1c(O)ccc2ccccc12)c1cc([N+](=O)[O-])cc([N+](=O)[O-])c1 |  |  |  | > 50 |  |  |  |  |  |  |  | 
31 | O=C(N/N=C/c1c(O)ccc2ccccc12)c1cccc([N+](=O)[O-])c1 |  |  |  | > 50 |  |  |  |  |  |  |  | 
32 | COc1ccc2ccccc2c1/C=N/N(C)C(=O)c1ccc(C)cc1 | > 50 | > 50 | > 50 | > 50 | > 50 | > 50 | > 50 | > 50 | > 50 | > 50 | > 50 | 
33 | Cc1cc(C(=O)N/N=C/c2cccc3ccccc23)[nH]n1 | > 50 | > 50 | > 50 | > 50 | > 50 | > 50 | > 50 | > 50 | > 50 | > 50 | > 50 | 
34 | O=[N+]([O-])c1ccc(O)c([N+](=O)[O-])c1 [2,4-DINITROPHENOL] | > 50 | 25 (≈ 136 µM) | > 50 | 50 (≈ 272 µM) | 12.5 (≈ 67.9 µM) | > 50 | 25 (≈ 136 µM) | > 50 | 25 (≈ 136 µM) | > 50 | > 50 | 
35 | COc1cccc(/C=N/NC(=O)c2cc(C)nc3ccc(Br)cc23)c1O | 6.25 (≈ 15.1 µM) | > 50 | > 50 | 6.25 (≈ 15.1 µM) | > 50 | > 50 | > 50 | > 50 | > 50 | > 50 | > 50 | 
